Measurements from US11566168B1, “Biocide blend for treating wellbores” (Halliburton Energy Services, Inc., priority 2021, dated 2023).

Columns and labels:
[1] = Properties that a biocide or blend possesses (Table 1)
Description: Some of the desirable properties can include maintaining biocidal activity in fluids having a high salinity or a high concentration of total dissolved solids, thermal stability, maintaining biocidal activity in the presence of ammonia or primary amines, quick kill, maintaining biocidal activity for extended periods of time—also known as persistence, and no interaction between the biocide and other additives having a negative charge (anions) within a treatment fluid.
The second property can be different. […] It is to be understood that unlike a triazine compound, glutaraldehyde is not a formaldehyde-releasing biocide.

[2] = tested on: sulfate reducing bacteria (SRB); test: Elevated temperature study of biocides, kill testing of SRB; assay type: cell-based, indigenous sulfate reducing bacteria; details: for biocidal effectiveness against SRB (FIG. 1): biocide-dosed water at 93° C. for 1 week, then 5 days at 32° C. with bacteria
Method: (§1) To facilitate a better understanding of the various embodiments, the following examples are given. […] Kill testing was performed at 32° C. (89.6° F.) at various contact times as follows. Bacterial populations were augmented prior to testing by culturing indigenous acid producing bacteria (APB) and sulfate reducing bacteria (SRB) in sample waters before starting kill studies. Prior to testing, cultures of APB and SRB from water samples were grown in culture medium. APB were grown in anaerobic phenol red dextrose medium (PRD). SRB were grown in American Petroleum Institute (API) medium without iron. The total dissolved solids (TDS) of SRB and APB media were selected to simulate wellbore fluids for some of the testing. Immediately preceding biocide testing, cultures were harvested by centrifugation. Cell pellets from mature bacteria were resuspended in sample water. The sample water, augmented with bacteria, was dispensed into 60 mL glass bottles and the appropriate amount of biocide was added. At the stated contact time of either 4 hours or 24 hours, biocide samples were taken for quantification. A standard serial dilution method into culture media was used to test biocide efficacy. Controls were serial diluted to theoretical extinction, while biocide-dosed samples were carried through 6 ten-fold dilutions as represented on the Y-axis of the figures. APB were quantitated by serial dilution into PRD medium. SRB were quantified by serial dilution into modified Postgate's medium B (MBP). Culture media were incubated at 32° C. (89.6° F.) and checked periodically. A change from red to yellow indicated a positive APB bottle. Formation of a black precipitate indicated a positive SRB bottle.
(§2) Elevated temperature studies of the biocides as shown in FIGS. 1 and 2 were conducted by adding 2 times the final biocide test concentration to 100 mL of sample water. The biocide-dosed sample was placed at 93° C. (199.4° F.) for 1 week or 2 weeks, FIG. 1 and FIG. 2, respectively. Following exposure to the elevated temperature, the heat-exposed biocide-dosed material was combined with an equal amount of sample water augmented with APB or SRB bacteria. The sample was then incubated for 5 days at 32° C. (89.6° F.). Following incubation, the sample material was serial diluted into PRD and MPB media for APB and SRB quantitation as discussed above. The biocides for FIGS. 1 and 2 are formaldehyde-releasing biocides. Tris(hydroxymethyl)nitromethane (“THNM”) and 4,4-dimethyloxazolidine (“DMO”) were obtained from DuPont®. Triazine was 1,3,5-triazine that is widely available commercially. Paraformaldehyde and […] (ratio 3:2) (“MBO”) was obtained from Vink chemicals. The formaldehyde-releasing biocides were in a concentration of 100, 150, 500, or 1,000 parts per million (“ppm”).

[3] = tested on: acid producing bacteria (APB); test: Elevated temperature study of biocides, kill testing of APB; assay type: cell-based, indigenous acid producing bacteria; details: for biocidal effectiveness against APB (FIG. 1): biocide-dosed water at 93° C. for 1 week, then 5 days at 32° C. with bacteria
Method: as §1, §2

[4] = at comparable or lower concentrations, 93° C. for 1 week
[5] = triazine at 100 ppm, 93° C. for 1 week

Compound | Activity in ammonia [1] | High salinity activity [1] | No interaction with anions [1] | Quick kill [1] | Thermal stability [1] | performance compared with the other formaldehyde-releasing biocides, SRB (FIG. 2) ([2]; 150 ppm, 93° C. for 2 weeks) | effectiveness compared with the other formaldehyde-releasing biocides, SRB (FIG. 1) [2, 4] | biocidal effectiveness against SRB (FIG. 1) [2] | effectiveness compared with MBO, SRB (FIG. 1) [2, 5] | performance compared with the other formaldehyde-releasing biocides, APB (FIG. 2) ([3]; 150 ppm, 93° C. for 2 weeks) | effectiveness compared with the other formaldehyde-releasing biocides, APB (FIG. 1) [3, 4] | biocidal effectiveness against APB (FIG. 1) [3] | effectiveness compared with MBO, APB (FIG. 1) [3, 5]
1,3,5-triazine | Yes | Yes | Yes | No | Yes | performed better | as effective or more effective | very effective | as effective as MBO at 1,000 ppm | performed better | as effective or more effective | effective | as effective as MBO at 1,000 ppm
CC1(C)COCN1 [DMO, 4,4-dimethyloxazolidine, reference compound] | – | – | – | – | – | – | – | not SRB | – | – | – | effective | –
O=CCCCC=O [Glutaraldehyde, glutaraldehyde, reference compound] | No | Yes | Yes | Yes | No | – | – | – | – | – | – | – | –
